Consider 15 molecules from patent publication US10266482B2, “Long-term memory inducing agent” (NATIONAL UNIVERSITY CORPORATION TOKYO MEDICAL AND DENTAL …, priority 2017, dated 2019).

The structures appear in SMILES notation.

Data set [1] relates to young crickets. The data set can be described thus: AMK-related synthetic compounds inducing long-term memories in young crickets. The format is in vivo, Gryllus bimaculatus. Conditions: 3 μl of 1 μg/ml to the brain 20 minutes after single-time training. How it is done: Male (young) crickets about one week old following molting into their adult stage were used. Each of the crickets was placed in a 100 ml beaker three days before the experiment, and deprived of water for 2-3 days to enhance the desire of taking water. As the feed, about 10 pieces of insect feed were placed into the beaker.
In the same manner as “1.2, Olfactory associative conditioning” in Example 1, learning/training for smell and reward associative conditioning was conducted.
In the same manner as “1.3. Smell preference test” in Example 1, a test of smell preference was carried out.
As drugs, the AMK-related synthetic compounds (Compounds 1-10) synthesized in Example 2 above were used. For all of the drugs, 1 mg of the drug was initially dissolved in 100 μl of DMSO, and then diluted with physiological saline for crickets that was 10000 times the amount of the drug solution (final concentration: 1 μg/ml). In the administration experiments, 3 μl was administered to the brain via an aperture opened through a simple eye of the head using a 10-μl syringe.
Processing was conducted in the same manner as “1.5. Statistical processing” in Example 1.

In data set [2] the test system is young crickets. The data set can be described thus: Olfactory associative learning test in young crickets (single-time training, memory a day after). To be noted: for long-term memory formation a day after the training: 3 μl to the brain. The format is in vivo, Gryllus bimaculatus. How it is done:
Male crickets about one week old (young) or three week old (aged) following molting into adult forms were used. Each of the crickets was placed into a 100 ml beaker three days before the experiment, and deprived of water for 2-3 days to enhance the desire of taking water. As the feed, about 10 pieces of insect feed were placed into the beaker.
A 1-ml syringe was used for smell and reward associative conditioning upon learning/training. The syringe contained water as the reward while a piece of paper (3 mm×3 mm) perfumed with peppermint essence was pierced into the needle to about 1 cm from the tip thereof. In this learning/training, the filter paper on the needle was brought near the antennae of the cricket to allow it to smell for 3 seconds and then a drop of water was put out from the tip of the needle and applied to the mouth of the cricket. When the associative conditioning was conducted for four times, the conditionings were conducted at intervals of 5 minutes.
Smell preference was examined by placing each cricket into a test arena. The arena consisted of a “standby chamber” and a “test chamber”. The floor of the “test chamber” had two holes each with a diameter of 4 cm which were communicated with two smell sources. The smell source was a plastic pot containing filter paper perfumed with essence of a smell (peppermint or vanilla) and covered with a gauze lid. In the preference test, each cricket was placed into the test chamber and allowed to walk freely for 4 minutes to search for the two smell sources. Two minutes after the start of the test, a rotary board having the smell sources was rotated to reverse the positions of the vanilla and the peppermint smells. During the test, the time the cricket spent placing its mouth to the gauze of the smell source was measured as a visiting time to the smell source, and the ratio of the visiting times of the two types of smells (PI value: preference index) was calculated according to the following formula to assess the relative preference to the mint smell. PI value=Tp/(Tp+Tv)×100 • Tp: Searching time for smell associated with the reward (peppermint) • Tv: Searching time for smell not associated with the reward (vanilla)
If the preferences for the two smells are equivalent, PI will be 50. Since crickets inherently prefer vanilla smell over peppermint smell, an average PI value prior to the learning/training is usually 25-35, The preference test was conducted before and after the learning/training to examine whether preference for the smell changes due to the learning/training.
As drugs, melatonin, N(1)-acetyl-N(2)-formyl-5-methoxykynuramine (AFMK), N(1)-acetyl-5-methoxykynuramine (AMK), 6-Hydroxymelatonin (6-HM), L-kynurenine, kynuramine, 8-Bromoguanoine 3′,5′-cyclic monophosphate sodium salt (8 br-cGMP) and cycloheximide (CHX) were used. Melatonin, 6-HM, kynurenine, kynuramine and 8br-cGMP were purchased from SIGMA Aldrich, AFMK was purchased from Cayman Chemical, AMK was purchased from Toronto Research Chemicals and CHX was purchased from Wako Pure Chemical Industries. The drugs other than 8br-cGMP and CHX were first dissolved in ethanol and then diluted with physiological saline for crickets to the respective concentrations. In the administration experiment, 3 μl was administered using a 10-μl syringe to the brain via an aperture opened through a simple eye of the head.
PI values were tested before the training and a day after the training in the same group by a Wilcoxon's-test.

A further data set deals with young mice. In words: Object recognition test for young mice (melatonin and melatonin metabolites). The format is in vivo, ICR mice. Conditions: i.p. 60 minutes after one one-minute acquisition trial, test trial 24 hours later. How it is done:
Two-month-old male ICR mice (young mice) were used. The rearing room was kept at 22° C. at cycles of 12 hours of light period/12 hours of dark period, and feed and drinking water were given freely. All of the experiments were conducted during the latter 6 hours of the light period.
Melatonin (MEL), N(1)-acetyl-N(2)-formyl-5-methoxykynuramine (AFMK), and N(1)-acetyl-5-methoxykynuramine (AMK) were used as drugs. Melatonin was purchased from SIGMA Aldrich, AFMK was purchased from Cayman Chemical, and AMK was purchased from Toronto Research Chemicals. AFMK and AMK were diluted with physiological saline and intraperitoneally administered at a dosage of 0.01 mg/kg bw, 0.1 mg/kg bw or 1.0 mg/kg bw. MEL was diluted with physiological saline containing 1 vol % ethanol, and intraperitoneally administered at a dosage of 1.0 mg/kg bw or 5.0 mg/kg bw. As controls, physiological saline or physiological saline containing 1 vol % ethanol was intraperitoneally administered.
Test was conducted in the same manner as “5.3 Object recognition test” in Example 5.
Processing was conducted in the same manner as “5.4 Statistical processing” in Example 5.

The subject of the next data set is aged crickets. In words: Olfactory associative learning test in aged crickets (age-related memory disorder, training four times). In kind it is in vivo, Gryllus bimaculatus. Conditions: 500 μM, 3 μl, 20 minutes before training for four times. How it is done: Male crickets about one week old (young) or three week old (aged) following molting into adult forms were used. Each of the crickets was placed into a 100 ml beaker three days before the experiment, and deprived of water for 2-3 days to enhance the desire of taking water. As the feed, about 10 pieces of insect feed were placed into the beaker. A 1-ml syringe was used for smell and reward associative conditioning upon learning/training. The syringe contained water as the reward while a piece of paper (3 mm×3 mm) perfumed with peppermint essence was pierced into the needle to about 1 cm from the tip thereof. In this learning/training, the filter paper on the needle was brought near the antennae of the cricket to allow it to smell for 3 seconds and then a drop of water was put out from the tip of the needle and applied to the mouth of the cricket. When the associative conditioning was conducted for four times, the conditionings were conducted at intervals of 5 minutes. Smell preference was examined by placing each cricket into a test arena. The arena consisted of a “standby chamber” and a “test chamber”. […] The smell source was a plastic pot containing filter paper perfumed with essence of a smell (peppermint or vanilla) and covered with a gauze lid. In the preference test, each cricket was placed into the test chamber and allowed to walk freely for 4 minutes to search for the two smell sources. Two minutes after the start of the test, a rotary board having the smell sources was rotated to reverse the positions of the vanilla and the peppermint smells. During the test, the time the cricket spent placing its mouth to the gauze of the smell source was measured as a visiting time to the smell source, and the ratio of the visiting times of the two types of smells (PI value: preference index) was calculated according to the following formula to assess the relative preference to the mint smell. PI value=Tp/(Tp+Tv)×100 • Tp: Searching time for smell associated with the reward (peppermint) • Tv: Searching time for smell not associated with the reward (vanilla) If the preferences for the two smells are equivalent, PI will be 50. Since crickets inherently prefer vanilla smell over peppermint smell, an average PI value prior to the learning/training is usually 25-35, The preference test was conducted before and after the learning/training to examine whether preference for the smell changes due to the learning/training. […] Melatonin, 6-HM, kynurenine, kynuramine and 8br-cGMP were purchased from SIGMA Aldrich, AFMK was purchased from Cayman Chemical, AMK was purchased from Toronto Research Chemicals and CHX was purchased from Wako Pure Chemical Industries. The drugs other than 8br-cGMP and CHX were first dissolved in ethanol and then diluted with physiological saline for crickets to the respective concentrations. In the administration experiment, 3 μl was administered using a 10-μl syringe to the brain via an aperture opened through a simple eye of the head. PI values were tested before the training and a day after the training in the same group by a Wilcoxon's-test.

The mark [3] stands for this setting: 5 μM, 20 minutes after single-time training.

In general, melting point refers to the temperature, or range, at which the solid turns liquid.

Consider `CCC(=O)NCCC(=O)c1cc(OC)ccc1N` [Compound 2, N-[3-(2-amino-5-methoxyphenyl)-3-oxopropyl]-propionamide], for which the “effect in inducing long-term memory compared with AMK” value (from here on “effect … compared with AMK”) with young crickets [1] was “superior effects over AMK”.
Same read-out and setting: the value for `COc1ccc(N)c(C(=O)CCNC(=O)c2ccccc2)c1` [Compound 3, N-[3-(2-amino-5-methoxyphenyl)-3-oxopropyl]-benzamide] was “superior effects over AMK”.
`COc1ccc(N)c(C(=O)CCNC(=O)c2ccccc2OC)c1` [Compound 5, N-[3-(2-amino-5-methoxyphenyl)-3-oxopropyl]-2-methoxybenzamide] came in with a melting point of 134.5 to 136 °C.
In turn, `COc1ccc(N)c(C(=O)CCNC(=O)c2ccc3ccccc3c2)c1` [Compound 6, N-[3-(2-amino-5-methoxyphenyl)-3-oxopropyl]-2-naphthamide] came in with a melting point of 113.5 to 114.5 °C. Moreover, in the data set on young crickets [1], the “effect in inducing long-term memory after one day” value is given as “did not show significant difference with the number of individuals used this time but they showed a tendency to induce long-term memories”.
`COc1cc2c(CCNC(C)=O)c[nH]c2cc1O` [Compound 6-HM, 6-Hydroxymelatonin, reference compound]: the “long-term memory formation a day after the training” value (“long-term memory formation a day” for short) is listed as “a long-term memory was not formed” in the data set on young crickets [2] (setting [3]) and “a long-term memory was not formed” in the data set with young crickets [2] (5 μM, 20 minutes before single-time training).
In turn, `COc1ccc(N)c(C(=O)CCNC(=O)c2ccccn2)c1` [Compound 7, N-[3-(2-amino-5-methoxyphenyl)-3-oxopropyl]-2-picolinamide] returned a melting point of 114 to 115.5 °C. Besides, in the data set with young crickets [1], the “effect … compared with AMK” value was “superior effects over AMK”.
Regarding `CC(=O)NCCC(=O)c1cc(Cl)ccc1N` [Compound 8, N-[3-(2-amino-5-chlorophenyl)-3-oxopropyl]-acetamide], the melting point fell in the range of 121 to 122 °C. Moreover, in the data set with young crickets [1], the “effect in inducing long-term memory after one day” value is on record as “did not show significant difference with the number of individuals used this time but they showed a tendency to induce long-term memories”.
As for `Nc1nc2c(nc(Br)n2[C@@H]2O[C@@H]3COP(=O)([O-])O[C@H]3[C@H]2O)c(=O)[nH]1.[Na+]` [Compound 8br-cGMP, 8-Bromoguanoine 3′,5′-cyclic monophosphate sodium salt, reference compound], the “long-term memory formation a day” value in the data set on young crickets [2] (200 μM, 20 minutes after single-time training) is “did not have the effect of inducing long-term memory”; in the data set with young crickets [2] (200 μM, 20 minutes before single-time training), “confirmed”.
With `CC(=O)NCCC(=O)c1ccccc1N` [Compound 9, N-[3-(2-aminophenyl)-3-oxopropyl]acetamide], the “effect … compared with AMK” value in the data set on young crickets [1] was “superior effects over AMK”.
As to `COc1ccc(NC=O)c(C(=O)CCNC(C)=O)c1` [Compound 10, N-[3-(2-formylamino-5-methoxyphenyl)-3-oxopropyl]acetamide], in the data set with young mice, the “concentration at which the effect of inducing long-term memories was found” value amounted to 1.0 mg/kg bw. In addition, the “administration concentration sufficient to form long-term memory” value in the data set with young crickets [2] (3 μl to the brain 20 minutes after single-time training) was 1 µM.
For `COc1ccc(NC(C)=O)c(C(=O)CCNC(C)=O)c1` [Compound 13, N-[3-(2-acetylamino-5-methoxyphenyl)-3-oxopropyl]acetamide], the melting point was in the range of 143 to 145 °C.
For the molecule `NCCC(=O)c1ccccc1N` [Compound 15, 3-amino-1-(2-aminophenyl)-1-propanone], the “long-term memory formation a day” value in the data set with young crickets [2] (setting [3]) is given as “the long-term memories were formed”.
The same measure, in the same setting: in the case of `Nc1ccccc1C(=O)CC(N)C(=O)O` (stereo not drawn) [Compound 16, 3-[(2-aminophenyl)carbonyl]-2-aminopropionic acid] it was “the long-term memories were formed”.
Turning to `N[C@@H](CCC(=O)N[C@@H](CS)C(=O)NCC(=O)O)C(=O)O` [glutathione], the “improvement in an age-related memory disorder” value in the data set on aged crickets is “no improvement”.
On the same count and under the same terms, the value for `O=C1O[C@H]([C@@H](O)CO)C(O)=C1O` [vitamin C] was “no improvement”.
